Laboratory results from ChEMBL document CHEMBL4483862, “Open-source discovery of chemical leads for next-generation chemoprotective antimalarials” (2018).

Tested on: Plasmodium berghei
Test: Luciferase/luciferin-expressing antifolate-resistant parasites were used to infect a culture of HepG2 cells that were pre-incubated with compounds. Infected hepatocytes emit light due to the luciferase reaction. Assay results are presented as the percent inhibition of light emission compared to control. […]
Type: functional
Conditions: sporozoite; for IC90: read-out: LUCIFERASE INFECTION ASSAY - IC90
[1] = read-out: LUCIFERASE INFECTION ASSAY - IC50

SMILES | IC90 [µM] | further results
NC(Cc1ccc(C(F)(F)F)cc1)c1csc(Nc2cc(Oc3ccccc3)ncn2)n1 (stereo not drawn) | > 7.21 | IC50 (PBLUC_HILL_SLOPE 3.27, PBLUC_R_SQUARED 0.275, read-out: LUCIFERASE INFECTION ASSAY - IC50): 4.26 µM
Cc1sc2ncnc(Sc3nnnn3-c3ccc(Cl)cc3)c2c1C | > 10 | IC50 [1]: > 10 µM
CSCC[C@H](NC(=O)CCN(c1cc(C)cc(C)c1)S(=O)(=O)c1ccc(Cl)cc1)c1nc2ccccc2[nH]1 | > 10 | IC50 (HEPG2TOX_HILL_SLOPE 1.18, HEPG2TOX_R_SQUARED 0.616, PBLUC_HILL_SLOPE 8.87, PBLUC_R_SQUARED 0.619, read-out: LUCIFERASE INFECTION ASSAY - IC50): 8.36 µM
O=C(CN1C(=O)C(=O)N(CCc2cccs2)C1=O)NC(=O)Nc1ccccc1F | > 10 | IC50 (PBLUC_HILL_SLOPE 3, PBLUC_R_SQUARED 0.385, read-out: LUCIFERASE INFECTION ASSAY - IC50): > 10 µM
CSc1ccccc1NC(=O)CN1CCN(C(c2ccccc2)c2ccccc2)CC1 | 6.36 | IC50 (HEPG2TOX_HILL_SLOPE 7.79, HEPG2TOX_R_SQUARED 0.752, PBLUC_HILL_SLOPE 3.88, PBLUC_R_SQUARED 0.663, read-out: LUCIFERASE INFECTION ASSAY - IC50): 3.61 µM
CC1CCCC(NC(=O)CNc2cc(C(F)(F)F)ccc2Oc2ccc(Br)cc2)C1C (stereo not drawn) | > 10 | IC50 [1]: > 10 µM
O=C(Nc1ccc(F)cc1F)c1cc(Cl)ccc1O | 4.37 | IC50 (HEPG2TOX_HILL_SLOPE 14.4, HEPG2TOX_R_SQUARED 0.715, PBLUC_HILL_SLOPE 17.6, PBLUC_R_SQUARED 0.0303, read-out: LUCIFERASE INFECTION ASSAY - IC50): 3.86 µM
COC(=O)c1ccc(C)c(NC(=O)CCc2ccc3c(c2)OCCO3)c1 | > 10 | IC50 [1]: > 10 µM
CCOc1cc2ccccc2cc1C(=O)NOCc1ccccc1 | > 10 | IC50 (PBLUC_HILL_SLOPE 2.14, PBLUC_R_SQUARED 0.146, read-out: LUCIFERASE INFECTION ASSAY - IC50): > 10 µM
Cc1cc(O)c(C(C)C)cc1NC1=NC(=O)S/C1=C\c1ccccc1OCC(=O)Nc1ccc(Cl)cc1 | 9.08 | IC50 (FFLUC_HILL_SLOPE 1.8, FFLUC_R_SQUARED 0.548, PBLUC_HILL_SLOPE 29.3, PBLUC_R_SQUARED 0.485, read-out: LUCIFERASE INFECTION ASSAY - IC50): 8.43 µM
O=C(NC1CCCc2ccccc21)c1ccc2c(c1)S(=O)(=O)c1ccccc1C2=O (stereo not drawn) | > 10 | IC50 (HEPG2TOX_HILL_SLOPE 1, HEPG2TOX_R_SQUARED 0.0756, read-out: LUCIFERASE INFECTION ASSAY - IC50): > 10 µM
FC(F)(F)c1nnc2ccc(Oc3ccc(Cl)c4ccccc34)nn12 | > 10 | IC50 [1]: > 10 µM
NC(c1csc(Nc2ccc(C(F)(F)F)cn2)n1)C1CCCCC1 (stereo not drawn) | > 9.26 | IC50 (PBLUC_HILL_SLOPE 4.28, PBLUC_R_SQUARED 0.42, read-out: LUCIFERASE INFECTION ASSAY - IC50): 7.59 µM
Cn1cc(-c2cn3c(-c4ccc(O)cc4)cnc3cn2)cn1 | > 11.3 | IC50 (HEPG2TOX_HILL_SLOPE 9.44, HEPG2TOX_R_SQUARED 0.67, PBLUC_HILL_SLOPE 2.21, PBLUC_R_SQUARED 0.503, read-out: LUCIFERASE INFECTION ASSAY - IC50): 6.85 µM
Cc1ccc(N2C(=O)C=CC2=O)cc1N1C(=O)C=CC1=O | > 11.7 | IC50 [1]: 7.78 µM
Cn1cc(C(=O)ONC(=N)c2ccc(C(C)(C)C)cc2)c(C(F)(F)F)n1 | > 8.96 | IC50 [1]: > 8.96 µM
CN(NC(=O)c1cccc(C(F)(F)F)c1)c1c(C#N)c(C(F)(F)F)nn1C | > 8.43 | IC50 [1]: > 8.43 µM
O=C(COc1ccccc1-c1ccccc1)NCC1CCCCC1 | > 10 | IC50 [1]: > 10 µM
CCOc1ccc(-n2c(SCC(=O)Nc3cc(C(C)(C)C)nn3-c3ccccc3)nc3ccccc32)cc1 | > 10 | IC50 (FFLUC_HILL_SLOPE 35.3, FFLUC_R_SQUARED 0.234, PBLUC_HILL_SLOPE 11.6, PBLUC_R_SQUARED 0.616, read-out: LUCIFERASE INFECTION ASSAY - IC50): 8.73 µM
Nc1nn(C(=O)c2csc3ccccc23)c2ccccc12 | > 10 | IC50 (FFLUC_HILL_SLOPE 1.19, FFLUC_R_SQUARED 0.595, HEPG2TOX_HILL_SLOPE 0.0302, HEPG2TOX_R_SQUARED 0.0617, PBLUC_HILL_SLOPE 0.566, PBLUC_R_SQUARED 0.73, read-out: LUCIFERASE INFECTION ASSAY - IC50): 0.359 µM

SMILES | IC90 [µM] | further results
CS(=O)(=O)Nc1cccc(-c2cnc3sc(NCCOc4ccccc4)nn23)c1 | > 7.68 | IC50 (PBLUC_HILL_SLOPE 4.91, PBLUC_R_SQUARED 0.558, read-out: LUCIFERASE INFECTION ASSAY - IC50): 5.02 µM
Cn1c2c(cc(-c3ccccc3)c1=O)CN(Cc1cnn(-c3ccc(F)cc3)c1)CC2 | > 7.96 | IC50 (HEPG2TOX_HILL_SLOPE 7.96, HEPG2TOX_R_SQUARED 0.425, PBLUC_HILL_SLOPE 14.6, PBLUC_R_SQUARED 0.0729, read-out: LUCIFERASE INFECTION ASSAY - IC50): 7.11 µM
COCOc1ccc(-c2cc(-c3ccc(S(C)(=O)=O)cc3)cnc2N)cc1 | 1.3 | IC50 (PBLUC_HILL_SLOPE 4.16, PBLUC_R_SQUARED 0.931, read-out: LUCIFERASE INFECTION ASSAY - IC50): 0.765 µM
CC(c1cccc(NC(=O)c2ccccc2)c1)N(C)c1ccc(C#N)cn1 (stereo not drawn) | > 10 | IC50 (PBLUC_HILL_SLOPE 1.47, PBLUC_R_SQUARED 0.583, read-out: LUCIFERASE INFECTION ASSAY - IC50): 3.04 µM
OC(C#CC(O)(c1ccccc1)c1ccccc1)(c1ccccc1)c1ccccc1 | > 8.45 | IC50 [1]: > 8.45 µM
Cc1cc(C)c(C(=O)OCCC(NS(=O)(=O)c2ccc(Cl)cc2)c2ccccc2)c(C)c1 (stereo not drawn) | > 10 | IC50 [1]: > 10 µM
Cc1ccc2nc(NC(=O)c3ccc(C#N)cc3)c(C(=O)NC3CCCC3)n2c1 | 0.336 | IC50 (FFLUC_HILL_SLOPE 93.7, FFLUC_R_SQUARED 0.282, HEPG2TOX_HILL_SLOPE 0.845, HEPG2TOX_R_SQUARED 0.968, PBLUC_HILL_SLOPE 14.4, PBLUC_R_SQUARED 0.874, read-out: LUCIFERASE INFECTION ASSAY - IC50): 0.288 µM
CC(C)c1noc2ncc(C(=O)Nc3ccc(Cl)c(C(F)(F)F)c3)cc12 | 9.79 | IC50 (HEPG2TOX_HILL_SLOPE 7.95, HEPG2TOX_R_SQUARED 0.873, PBLUC_HILL_SLOPE 16.7, PBLUC_R_SQUARED 0.65, read-out: LUCIFERASE INFECTION ASSAY - IC50): 8.58 µM
Cc1cc(/C=C2\SC(NC3CCCCC3)=NC2=O)c(C)n1-c1ccc(Cl)c(C(F)(F)F)c1 | 9.71 | IC50 (FFLUC_HILL_SLOPE 17.5, FFLUC_R_SQUARED 0.757, PBLUC_HILL_SLOPE 2.43, PBLUC_R_SQUARED 0.441, read-out: LUCIFERASE INFECTION ASSAY - IC50): 3.93 µM
CCOc1ccc2c(c1)sc(=N)n2Cc1ccc(Cl)cc1 | > 10 | IC50 (PBLUC_HILL_SLOPE 3.98, PBLUC_R_SQUARED 0.233, read-out: LUCIFERASE INFECTION ASSAY - IC50): 6.2 µM
CCCN1CCN(C(=O)c2ccc(-c3ccc(C(C)=O)cc3)o2)CC1 | > 10 | IC50 (PBLUC_HILL_SLOPE 0.574, PBLUC_R_SQUARED 0.0124, read-out: LUCIFERASE INFECTION ASSAY - IC50): > 10 µM
O=C(c1cnc(Nc2cccc(Oc3ccccc3)c2)[nH]1)c1ccccc1O | 1.08 | IC50 (HEPG2TOX_HILL_SLOPE 1.38, HEPG2TOX_R_SQUARED 0.947, PBLUC_HILL_SLOPE 15.8, PBLUC_R_SQUARED 0.824, read-out: LUCIFERASE INFECTION ASSAY - IC50): 0.938 µM
CN(C)c1ccc(-c2cnc3cnc(-c4ccc(CO)cc4)cn23)cc1 | > 9.58 | IC50 (HEPG2TOX_HILL_SLOPE 1.55, HEPG2TOX_R_SQUARED 0.978, PBLUC_HILL_SLOPE 1.15, PBLUC_R_SQUARED 0.872, read-out: LUCIFERASE INFECTION ASSAY - IC50): 1.58 µM
C[C@H]1O[C@@H](O[C@H]2[C@@H](O)C[C@H](O[C@H]3[C@@H](O)C[C@H](O[C@H]4CC[C@]5(C)C6CC[C@]7(C)[C@@H](C8=CC(=O)OC8)CC[C@]7(O)C6CC[C@@H]5C4)O[C@@H]3C)O[C@@H]2C)C[C@H](O)[C@H]1O (stereo partly drawn) | 3.31 | IC50 (HEPG2TOX_HILL_SLOPE 2.7, HEPG2TOX_R_SQUARED 0.866, PBLUC_HILL_SLOPE 1.79, PBLUC_R_SQUARED 0.476, read-out: LUCIFERASE INFECTION ASSAY - IC50): 0.969 µM
O=C(Cc1cccs1)NCC(c1ccccc1Cl)c1c[nH]c2ccccc12 (stereo not drawn) | 9.35 | IC50 (FFLUC_HILL_SLOPE 3.31, FFLUC_R_SQUARED 0.784, PBLUC_HILL_SLOPE 3.75, PBLUC_R_SQUARED 0.47, read-out: LUCIFERASE INFECTION ASSAY - IC50): 5.2 µM
O=C(Nc1ccc(Oc2cc(C(F)(F)F)cc(C(F)(F)F)c2)cc1)Nc1ccc(OC(F)(F)F)cc1 | 0.304 | IC50 (FFLUC_HILL_SLOPE 4.18, FFLUC_R_SQUARED 0.0377, HEPG2TOX_HILL_SLOPE 3.88, HEPG2TOX_R_SQUARED 0.972, PBLUC_HILL_SLOPE 90.6, PBLUC_R_SQUARED 0.773, read-out: LUCIFERASE INFECTION ASSAY - IC50): 0.297 µM
Cn1c(Cn2nnc(-c3cccc(F)c3)n2)nc2ccccc2c1=O | > 10 | IC50 [1]: > 10 µM
COc1ccc(OC)c(Cn2cc(Br)ccc2=O)c1 | > 10 | IC50 (HEPG2TOX_HILL_SLOPE 10.1, HEPG2TOX_R_SQUARED 0.0663, read-out: LUCIFERASE INFECTION ASSAY - IC50): > 10 µM
COc1cc(OC)cc(C(=O)NC(=S)N(Cc2ccccc2)C(C)C)c1 | > 10 | IC50 (PBLUC_HILL_SLOPE 14.1, PBLUC_R_SQUARED 0.0494, read-out: LUCIFERASE INFECTION ASSAY - IC50): 8.89 µM
